From PubChem BioAssay (NCI)
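Five concentrations, 48 hours, 96-well plates. TGI is the concentration that stops growth completely.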

Assays:
Assay in all cases: NCI-60 cell line screen, 48 h
786-0 renal = system: 786-0 renal
A498 renal = system: A498 renal
A549 NSCLC = system: A549 NSCLC
ACHN renal = system: ACHN renal
BT-549 breast = system: BT-549 breast
CAKI-1 renal = system: CAKI-1 renal
CCRF-CEM leukemia = system: CCRF-CEM leukemia
COLO 205 colon = system: COLO 205 colon
DU-145 prostate = system: DU-145 prostate
EKVX NSCLC = system: EKVX NSCLC
HCC-2998 colon = system: HCC-2998 colon
HCT-116 colon = system: HCT-116 colon
HCT-15 colon = system: HCT-15 colon
HL-60(TB) leukemia = system: HL-60(TB) leukemia
HOP-62 NSCLC = system: HOP-62 NSCLC
HOP-92 NSCLC = system: HOP-92 NSCLC
HS 578T breast = system: HS 578T breast
HT29 colon = system: HT29 colon
IGROV1 ovarian = system: IGROV1 ovarian
K-562 leukemia = system: K-562 leukemia
KM12 colon = system: KM12 colon
LOX IMVI melanoma = system: LOX IMVI melanoma
M14 melanoma = system: M14 melanoma
MALME-3M melanoma = system: MALME-3M melanoma
MCF7 breast = system: MCF7 breast
MDA-MB-231 breast = system: MDA-MB-231 breast
MDA-MB-435 = system: MDA-MB-435
MDA-N = system: MDA-N
MOLT-4 leukemia = system: MOLT-4 leukemia
NCI-H226 lung = system: NCI-H226 lung
NCI-H23 lung = system: NCI-H23 lung
NCI-H460 lung = system: NCI-H460 lung
NCI-H522 lung = system: NCI-H522 lung
NCI/ADR-RES ovarian = system: NCI/ADR-RES ovarian
OVCAR-3 ovarian = system: OVCAR-3 ovarian
OVCAR-4 ovarian = system: OVCAR-4 ovarian
OVCAR-5 ovarian = system: OVCAR-5 ovarian
OVCAR-8 ovarian = system: OVCAR-8 ovarian
PC-3 prostate = system: PC-3 prostate
RPMI-8226 leukemia = system: RPMI-8226 leukemia
RXF 393 renal = system: RXF 393 renal
SF-268 CNS = system: SF-268 CNS
SF-295 CNS = system: SF-295 CNS
SF-539 CNS = system: SF-539 CNS
SK-MEL-2 melanoma = system: SK-MEL-2 melanoma
SK-MEL-28 melanoma = system: SK-MEL-28 melanoma
SK-MEL-5 melanoma = system: SK-MEL-5 melanoma
SK-OV-3 ovarian = system: SK-OV-3 ovarian
SN12C renal = system: SN12C renal
SNB-19 CNS = system: SNB-19 CNS
SNB-75 CNS = system: SNB-75 CNS
SR leukemia = system: SR leukemia
SW-620 colon = system: SW-620 colon
T-47D breast = system: T-47D breast
TK-10 renal = system: TK-10 renal
U251 CNS = system: U251 CNS
UACC-257 melanoma = system: UACC-257 melanoma
UACC-62 melanoma = system: UACC-62 melanoma
UO-31 renal = system: UO-31 renal

OC(CCN1CCN(CCOC(c2ccc(F)cc2)c2ccc(F)cc2)CC1)c1ccc(Br)cc1 (centres undefined)
TGI (786-0 renal): 7.07 µM | TGI (A498 renal): 8.04 µM | TGI (A549 NSCLC): 24.1 µM | TGI (ACHN renal): 17 µM | TGI (BT-549 breast): 12.5 µM | TGI (CAKI-1 renal): 5.71 µM | TGI (CCRF-CEM leukemia): 11.7 µM | TGI (COLO 205 colon): 3.84 µM | TGI (DU-145 prostate): 17.4 µM | TGI (EKVX NSCLC): 17.7 µM | TGI (HCC-2998 colon): 3.53 µM | TGI (HCT-116 colon): 7.84 µM | TGI (HCT-15 colon): 8.25 µM | TGI (HL-60(TB) leukemia): 11.2 µM | TGI (HOP-62 NSCLC): 14.5 µM | TGI (HOP-92 NSCLC): 13.7 µM | TGI (HS 578T breast): 23.4 µM | TGI (HT29 colon): 12.7 µM | TGI (IGROV1 ovarian): 16.1 µM | TGI (K-562 leukemia): 7 µM | TGI (KM12 colon): 8.07 µM | TGI (LOX IMVI melanoma): 4.07 µM | TGI (M14 melanoma): 3.86 µM | TGI (MALME-3M melanoma): 4.39 µM | TGI (MCF7 breast): 9.85 µM | TGI (MDA-MB-231 breast): 19.9 µM | TGI (MDA-MB-435): 6.82 µM | TGI (MDA-N): 6.93 µM | TGI (MOLT-4 leukemia): 7.73 µM | TGI (NCI-H226 lung): 21.9 µM | TGI (NCI-H23 lung): 18.9 µM | TGI (NCI-H460 lung): 7.37 µM | TGI (NCI-H522 lung): 16.4 µM | TGI (NCI/ADR-RES ovarian): 7.67 µM | TGI (OVCAR-3 ovarian): 9.66 µM | TGI (OVCAR-4 ovarian): 13.9 µM | TGI (OVCAR-5 ovarian): 29.4 µM | TGI (OVCAR-8 ovarian): 4.1 µM | TGI (PC-3 prostate): 17.8 µM | TGI (RPMI-8226 leukemia): 6.93 µM | TGI (RXF 393 renal): 10 µM | TGI (SF-268 CNS): 17.6 µM | TGI (SF-295 CNS): 9.73 µM | TGI (SF-539 CNS): 5.15 µM | TGI (SK-MEL-2 melanoma): 18.8 µM | TGI (SK-MEL-28 melanoma): 7.9 µM | TGI (SK-MEL-5 melanoma): 3.3 µM | TGI (SK-OV-3 ovarian): 19.8 µM | TGI (SN12C renal): 7.12 µM | TGI (SNB-19 CNS): 21.2 µM | TGI (SNB-75 CNS): 23.7 µM | TGI (SR leukemia): 4.13 µM | TGI (SW-620 colon): 31.2 µM | TGI (T-47D breast): 13.7 µM | TGI (TK-10 renal): 20.9 µM | TGI (U251 CNS): 16.4 µM | TGI (UACC-257 melanoma): 4.61 µM | TGI (UACC-62 melanoma): 12.7 µM | TGI (UO-31 renal): 4.67 µM
